Legend:
[1] = species: Rattus norvegicus; assay: Inhibition of Monoamine oxidase in rat brain mitochondria at 0.008 mM by kynuramine fluorimetric assay
[2] = species: Rattus norvegicus; assay: Inhibition of Monoamine oxidase in rat brain mitochondria at 0.08 mM by kynuramine fluorimetric assay
[3] = species: Rattus norvegicus; assay: Inhibition of Monoamine oxidase in rat brain mitochondria at 0.8 mM by kynuramine fluorimetric assay
[4] = species: Rattus norvegicus; assay: Inhibition of Monoamine oxidase in rat brain mitochondria at 0.01 mM by kynuramine fluorimetric assay
[5] = species: Rattus norvegicus; assay: Inhibition of Monoamine oxidase in rat brain mitochondria at 0.1 mM by kynuramine fluorimetric assay
[6] = species: Rattus norvegicus; assay: Inhibition of Monoamine oxidase in rat brain mitochondria at 1 mM by kynuramine fluorimetric assay

Row | Structure (SMILES) | inhibition [1] | inhibition [2] | inhibition [3] | inhibition [4] | inhibition [5] | inhibition [6]
1 | CCCCC1(CCCC)OC(c2ccc3c(c2)OCO3)=NN1C(=O)NC(=O)c1ccccc1Cl |  |  |  | 6.73% | 27.5% | 75.4%
2 | CCCCC1(CCCC)OC(c2cc(OC)c(OC)c(OC)c2)=NN1C(=O)NC(=O)c1c(F)cccc1F |  |  |  | 0% | 21.7% | 69.2%
3 | CCCCC1(CCCC)OC(c2ccc3c(c2)OCO3)=NN1C(=O)NC(=O)c1c(F)cccc1F |  |  |  | 8.37% | 41% | 78.4%
4 | CCCCC1(CCCC)OC(c2ccco2)=NN1C(=O)NC(=O)c1c(F)cccc1F |  |  |  | 1.84% | 23.7% | 75.1%
5 | CCCCC1(CCCC)OC(c2ccc(Cl)cc2)=NN1C(=O)NC(=O)c1c(F)cccc1F |  |  |  | 0% | 6.03% | 58.8%
6 | CCCCC1(CCCC)OC(c2ccc(Cl)cc2Cl)=NN1C(=O)NC(=O)c1cc(F)c(OC)c(F)c1F |  |  |  | 2.92% | 25.9% | 81.8%
7 | CCCCC1(CCCC)OC(c2ccc(Cl)cc2Cl)=NN1C(=O)NC(=O)c1ccccc1Cl |  |  |  | 5.86% | 24.9% | 78%
8 | CCCCC1(CCCC)OC(c2ccc(Cl)cc2Cl)=NN1C(=O)NC(=O)c1c(F)cccc1F |  |  |  | 5.43% | 25.1% | 72.5%

Now from value to compound:

Row | inhibition [1] | inhibition [2] | inhibition [3] | inhibition [4] | inhibition [5] | inhibition [6] | Structure (SMILES)
9 | 1.21% | 0% | 0% |  |  |  | CCCCC1(CCCC)OC(c2ccc3c(c2)OCO3)=NN1C(C)=O
10 | 0% | 0% | 0% |  |  |  | CCCCC1(CCCC)OC(c2cc(OC)c(OC)c(OC)c2)=NN1C(C)=O
11 |  |  |  | 5.85% | 26.2% | 69.2% | CCCCC1(CCCC)OC(c2cc(C)cc(C)c2)=NN1C(=O)NC(=O)c1c(F)cccc1F
12 | 2.89% | 17.7% | 42.8% |  |  |  | CCCCC1(CCCC)OC(c2cc(C)cc(C)c2)=NN1C(C)=O
13 |  |  |  | 4.12% | 24.6% | 72.8% | CCCCC1(CCCC)OC(c2cc(C)cc(C)c2)=NN1C(=O)NC(=O)c1ccccc1Cl
